US11117900B2 (Vertex Pharmaceuticals Incorporated, priority 2012, dated 2021)

Tested on: HCT116 colorectal cancer cells
Experiment: Cisplatin sensitization assay (96 h MTS cell viability);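 note: compound concentration needed to lower the IC50 of Cisplatin alone by a set fold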
Format: cell-based
Settings: Cisplatin sensitization value
Method in brief: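 HCT116 cells were dosed simultaneously with compound and cisplatin as a full matrix of 2-fold serial dilutions from 10 μM top final concentration. Incubation was 96 h at 37° C., 5% CO2, followed by 1 h with MTS reagent for the viability read-out. Sensitization values were binned into +++, ++ and + categories.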

| SMILES | Cisplatin Sensitization Assay |
| --- | --- |
| Nc1nn2cc(F)cnc2c1C(=O)Nc1cncc(F)c1N1CCC(C(=O)N2CCNC3(CC3)C2)CC1 [I-G-28, N-(4-(4-(4,7-diazaspiro[2.5]octane-7-carbonyl)piperidin-1-yl)-5-fluoropyridin-3-yl)-2-amino-6-fluoropyrazolo[1,5-a]pyrimidine-3-carboxamide] | +++ (Compounds with a Cisplatin sensitization value of <0.02 μM are marked with “+++.”) |
| Nc1nn2cc(F)cnc2c1C(=O)Nc1cncc(F)c1N1CCC(C(=O)N2CCC(N3CCC3)CC2)CC1 [I-G-68, 2-amino-N-(4-(4-(4-(azetidin-1-yl)piperidine-1-carbonyl)piperidin-1-yl)-5-fluoropyridin-3-yl)-6-fluoropyrazolo[1,5-a]pyrimidine-3-carboxamide] | +++ (Compounds with a Cisplatin sensitization value of <0.02 μM are marked with “+++.”) |
| N#CC1CN(C(=O)C2CCN(c3ccncc3NC(=O)c3c(N)nn4cc(F)cnc34)CC2)C1 [I-G-81, 2-amino-N-(4-(4-(3-cyanoazetidine-1-carbonyl)piperidin-1-yl)pyridin-3-yl)-6-fluoropyrazolo[1,5-a]pyrimidine-3-carboxamide] | +++ (Compounds with a Cisplatin sensitization value of <0.02 μM are marked with “+++.”) |
| Nc1nn2cc(F)cnc2c1C(=O)Nc1cnccc1N1CCC(C(=O)N2CCC3(COC3)C2)CC1 [I-G-84, N-(4-(4-(2-oxa-6-azaspiro[3.4]octane-6-carbonyl)piperidin-1-yl)pyridin-3-yl)-2-amino-6-fluoropyrazolo[1,5-a]pyrimidine-3-carboxamide] | +++ (Compounds with a Cisplatin sensitization value of <0.02 μM are marked with “+++.”) |
| CNc1cc(OC)c(NC(=O)c2c(N)nn3cc(F)cnc23)cn1 [I-O-90, 2-amino-6-fluoro-N-(4-methoxy-6-(methylamino)pyridin-3-yl)pyrazolo[1,5-a]pyrimidine-3-carboxamide] | + (Compounds with a Cisplatin sensitization value >0.2 μM but <5 μM are marked with “+.”) |
| Nc1nn2cc(F)cnc2c1C(=O)Nc1cncc(F)c1N1CCC(C(=O)N2CC(O)C2)CC1 [I-G-41, 2-amino-6-fluoro-N-(5-fluoro-4-(4-(3-hydroxyazetidine-1-carbonyl)piperidin-1-yl)pyridin-3-yl)pyrazolo[1,5-a]pyrimidine-3-carboxamide] | +++ (Compounds with a Cisplatin sensitization value of <0.02 μM are marked with “+++.”) |
| CN1CCC(C(=O)N2CC=C(c3c(F)cncc3NC(=O)c3c(N)nn4cc(F)cnc34)CC2)CC1 [I-C-38, 2-amino-6-fluoro-N-(5-fluoro-1′-(1-methylpiperidine-4-carbonyl)-1′,2′,3′,6′-tetrahydro-[4,4′-bipyridin]-3-yl)pyrazolo[1,5-a]pyrimidine-3-carboxamide] | ++ (Compounds with a Cisplatin sensitization value >0.02 μM but <0.2 μM are marked with “++.”) |
| CN1CCCN(c2ccncc2NC(=O)c2c(N)nn3cc(Cl)cnc23)CC1 [I-N-43, 2-amino-6-chloro-N-(4-(4-methyl-1,4-diazepan-1-yl)pyridin-3-yl)pyrazolo[1,5-a]pyrimidine-3-carboxamide] | ++ (Compounds with a Cisplatin sensitization value >0.02 μM but <0.2 μM are marked with “++.”) |
| CN(C)C1CN(C(=O)C2CCN(c3c(F)cncc3NC(=O)c3c(N)nn4cc(F)cnc34)CC2)C1 [I-G-22, 2-amino-N-(4-(4-(3-(dimethylamino)azetidine-1-carbonyl)piperidin-1-yl)-5-fluoropyridin-3-yl)-6-fluoropyrazolo[1,5-a]pyrimidine-3-carboxamide] | +++ (Compounds with a Cisplatin sensitization value of <0.02 μM are marked with “+++.”) |
| CN1CCN(C(=O)N2CCC(c3ccncc3NC(=O)c3c(N)nn4cc(F)cnc34)CC2)CC1 [I-C-17, 2-amino-6-fluoro-N-(4-(1-(4-methylpiperazine-1-carbonyl)piperidin-4-yl)pyridin-3-yl)pyrazolo[1,5-a]pyrimidine-3-carboxamide] | ++ (Compounds with a Cisplatin sensitization value >0.02 μM but <0.2 μM are marked with “++.”) |
| CN1CCN(C(=O)C2(C#N)CCN(c3c(F)cncc3NC(=O)c3c(N)nn4cc(F)cnc34)CC2)CC1 [I-G-25, 2-amino-N-(4-(4-cyano-4-(4-methylpiperazine-1-carbonyl)piperidin-1-yl)-5-fluoropyridin-3-yl)-6-fluoropyrazolo[1,5-a]pyrimidine-3-carboxamide] | +++ (Compounds with a Cisplatin sensitization value of <0.02 μM are marked with “+++.”) |
| Nc1nn2cc(F)cnc2c1C(=O)Nc1cncc(F)c1N1CCC(C(=O)N2CCN(C3COC3)CC2)CC1 [I-G-32, 2-amino-6-fluoro-N-[5-fluoro-4-[4-[4-(oxetan-3-yl)piperazine-1-carbonyl]-1-piperidyl]-3-pyridyl]pyrazolo[1,5-a]pyrimidine-3-carboxamide] | +++ (Compounds with a Cisplatin sensitization value of <0.02 μM are marked with “+++.”) |
| CN1CCC(S(=O)(=O)N2CCN(c3ccncc3NC(=O)c3c(N)nn4cc(F)cnc34)CC2)CC1 [I-N-188, 2-amino-6-fluoro-N-(4-(4-((1-methylpiperidin-4-yl)sulfonyl)piperazin-1-yl)pyridin-3-yl)pyrazolo[1,5-a]pyrimidine-3-carboxamide] | +++ (Compounds with a Cisplatin sensitization value of <0.02 μM are marked with “+++.”) |
| CN1CCOCC1C(=O)N1CCN(c2c(F)cncc2NC(=O)c2c(N)nn3cc(F)cnc23)CC1 (stereo not shown) [I-N-227, 2-amino-6-fluoro-N-(5-fluoro-4-(4-(4-methylmorpholine-3-carbonyl)piperazin-1-yl)pyridin-3-yl)pyrazolo[1,5-a]pyrimidine-3-carboxamide] | +++ (Compounds with a Cisplatin sensitization value of <0.02 μM are marked with “+++.”) |
| Nc1nn2cc(F)cnc2c1C(=O)Nc1cnccc1N1CCC(S(=O)(=O)N2CCOCC2)CC1 [I-N-170, 2-amino-6-fluoro-N-(4-(4-(morpholinosulfonyl)piperidin-1-yl)pyridin-3-yl)pyrazolo[1,5-a]pyrimidine-3-carboxamide] | +++ (Compounds with a Cisplatin sensitization value of <0.02 μM are marked with “+++.”) |
| Nc1nn2cc(F)cnc2c1C(=O)Nc1cnccc1C1CC1 [I-C-42, 2-amino-N-(4-cyclopropylpyridin-3-yl)-6-fluoropyrazolo[1,5-a]pyrimidine-3-carboxamide] | ++ (Compounds with a Cisplatin sensitization value >0.02 μM but <0.2 μM are marked with “++.”) |
| Nc1nn2cc(F)cnc2c1C(=O)Nc1cnccc1N1CCN2CCC[C@H]2C1 [I-N-21, (S)-2-amino-6-fluoro-N-(4-(hexahydropyrrolo[1,2-a]pyrazin-2(1H)-yl)pyridin-3-yl)pyrazolo[1,5-a]pyrimidine-3-carboxamide] | +++ (Compounds with a Cisplatin sensitization value of <0.02 μM are marked with “+++.”) |
| CN1CCC[C@@H]1C(=O)N1CCN(c2ccncc2NC(=O)c2c(N)nn3cc(F)cnc23)CC1 [I-N-199, (R)-2-amino-6-fluoro-N-(4-(4-(1-methylpyrrolidine-2-carbonyl)piperazin-1-yl)pyridin-3-yl)pyrazolo[1,5-a]pyrimidine-3-carboxamide] | +++ (Compounds with a Cisplatin sensitization value of <0.02 μM are marked with “+++.”) |
| CS(=O)(=O)N1CCN(c2ccncc2NC(=O)c2c(N)nn3cc(F)cnc23)CC1 [I-N-178, 2-amino-6-fluoro-N-(4-(4-(methylsulfonyl)piperazin-1-yl)pyridin-3-yl)pyrazolo[1,5-a]pyrimidine-3-carboxamide] | +++ (Compounds with a Cisplatin sensitization value of <0.02 μM are marked with “+++.”) |
| Nc1nn2cc(Cl)cnc2c1C(=O)Nc1cncc(F)c1N1CCC(C(=O)N2CCN3CCC2CC3)CC1 [I-G-87, N-(4-(4-(1,4-diazabicyclo[3.2.2]nonane-4-carbonyl)piperidin-1-yl)-5-fluoropyridin-3-yl)-2-amino-6-chloropyrazolo[1,5-a]pyrimidine-3-carboxamide] | +++ (Compounds with a Cisplatin sensitization value of <0.02 μM are marked with “+++.”) |
| Cc1cc(C(=O)N2CCN(C)CC2)ccc1-c1ccncc1NC(=O)c1c(N)nn2cc(F)cnc12 [I-C-45, 2-amino-6-fluoro-N-(4-(2-methyl-4-(4-methylpiperazine-1-carbonyl)phenyl)pyridin-3-yl)pyrazolo[1,5-a]pyrimidine-3-carboxamide] | +++ (Compounds with a Cisplatin sensitization value of <0.02 μM are marked with “+++.”) |
| COC1CCN(c2ccncc2NC(=O)c2c(N)nn3cc(Cl)cnc23)CC1 [I-N-73, 2-amino-6-chloro-N-(4-(4-methoxypiperidin-1-yl)pyridin-3-yl)pyrazolo[1,5-a]pyrimidine-3-carboxamide] | +++ (Compounds with a Cisplatin sensitization value of <0.02 μM are marked with “+++.”) |
| Cc1cncc(NC(=O)c2c(N)nn3cc(F)cnc23)c1N1CCN(C2CCOCC2)CC1 [I-N-123, 2-amino-6-fluoro-N-(5-methyl-4-(4-(tetrahydro-2H-pyran-4-yl)piperazin-1-yl)pyridin-3-yl)pyrazolo[1,5-a]pyrimidine-3-carboxamide] | ++ (Compounds with a Cisplatin sensitization value >0.02 μM but <0.2 μM are marked with “++.”) |
| CN(C)CCCOc1ccncc1NC(=O)c1c(N)nn2cc(Cl)cnc12 [I-O-52, 2-amino-6-chloro-N-(4-(3-(dimethylamino)propoxy)pyridin-3-yl)pyrazolo[1,5-a]pyrimidine-3-carboxamide] | + (Compounds with a Cisplatin sensitization value >0.2 μM but <5 μM are marked with “+.”) |
| CN1CCN2CCN(c3ccncc3NC(=O)c3c(N)nn4cc(F)cnc34)CC2C1=O (stereo not shown) [I-N-233, 2-amino-6-fluoro-N-(4-(8-methyl-9-oxohexahydro-1H-pyrazino[1,2-a]pyrazin-2(6H)-yl)pyridin-3-yl)pyrazolo[1,5-a]pyrimidine-3-carboxamide] | ++ (Compounds with a Cisplatin sensitization value >0.02 μM but <0.2 μM are marked with “++.”) |
